In publication PMC12856912, “Structure-Guided Semisynthesis of Blasticidin S–Amicetin Chimeras as Selective Ribosome Inhibitors” (Journal of the American Chemical Society, 2026):
Values after ≈ are worked out from the molar mass of the structure shown.

Experiments:
[1] = system: Methicillin resistant Staphylococcus epidermidis (MRSE) ATCC 35984 NRS101; test: Antibacterial MIC assay, serial dilution; format: cell-based; settings: for Selectivity index (CC50/MIC) MRSE 35984: CC50 Vero cells / MIC; for MIC: Staphylococcus epidermidis, read-out: MIC Methicillin resistant Staphylococcus epidermidis (MRSE) ATCC 35984 NRS101
[2] = system: Escherichia coli BAA-2452; test: Antibacterial MIC assay, serial dilution; format: cell-based; settings: BAA2452, read-out: MIC Escherichia coli BAA-2452
Vero cells = test: Cytotoxicity assay (MTS/PMS); format: cell-based; settings: Vero cells, chimera vs parent of its series
Protocol: (§1) The potential cytotoxic eff ect of the test compounds was investigated using Vero cells (monkey kidney epitheli al cells) following est ablished protocols.3 Briefly, Vero cells were plated into 96-well plates supplemented with Dulbecco's Modified Eagle Medium (DMEM) containing 10% fetal bovine serum (FBS). The cells were placed in a humidified 37 °C environment for incubation with 5% CO₂ for 24 h to allow proper adherence and growth. Following the incubation period, the culture medium was replaced with fresh DMEM containing serial dilutions of the test compounds, while the v ehicle alon e w as used as a negative control. The treated cells were incubated for an additional 24 h. To assess cell viability, the MTS/PMS reagent was added to each well and incubat ed for 4 h. A microplate reader (S ynergy H1, BioTek, USA) was used to m easure absorbance at 490 nm. Al l experiments wer e cond ucted usingthree biologi cal replicates .
(§2) Ta b l e S2. CC50 valuesa (µg/mL) against Vero cells […]
(§3) aValues at which the cell viability (normalized to vehicle control) was 50%. […]

[3] = Cytotoxicity assay (MTS/PMS); format: cell-based; settings: monkey, Vero cells (monkey kidney epithelial cells); 24 h treatment, MTS/PMS, average of three biological replicates; read-out: CC50 against Vero cells
Protocol: as §1, §2, §3

S. aureus ATCC 6538P = test: Antibacterial MIC assay, serial dilution; format: cell-based, Staphylococcus aureus; settings: for Selectivity index (CC50/MIC) S. aureus 6538P: CC50 Vero cells / MIC; for MIC: Staphylococcus aureus, ATCC 6538P / ATCC 6539P, read-out: MIC S. aureus ATCC 6539P
Protocol: (§4) Media and solutions were autoclaved or sterile filtered prior to use and mani pulations were carri ed out in a laminar flow hood. Antibacterial t esting was performed in polypropylene 96-well flat bottom plates. The minimal inhibitory concentration of blasticidin S (1) hydrochloride, methyl ester (3) trihydrochloride, P10 (2) tri-T FA , phenet hyl amide (4) tri -T FA , an d blastimidines M 19– 22, A, 29–32, P 37–40, and C 43–46 (salt forms as described in the te xt) were assessed against Staphylococcus aureus ΔNorA, S. aureus ATCC 6538P, methicillin-resistant S. aureus (MRSA) ATCC 43300, Enterococcus faecalis ATCC 29212, vancomycin- resistant Enterococcus, Klebsiella pneumoniae ATCC 29665, Pseudomonas aeruginosa,and Acinetobacter baumannii ATCC 17978 using serial dilutions. Doxycycline (Gold Bio) as a positive control and the vehicle as a negative control. Stock solutions of each compound were prepared at 2.56 mg/mL in 50% DMSO/water and serially diluted in 50% DMSO/water to create master plates. From the master plates, 10 μ L o f each dilution was applied to test plates using a Bravo automated liquid transfer system (Agilent).
(§5) Bacteria previously grown overnight (37 °C, 120–200 RPM), in LB broth were diluted to an OD600 of 0.05 in cation-adjusted Mueller-Hinton broth (CAMHB), grown to an OD600 of ~0.5, and diluted to an OD600 of 0.004 in CAMHB . These diluted cultures were applied to the test plates (190 μL per test well) resulting in final concentrations of the test compounds of 128–1 μg/ m L.
(§6) Growth controls (wells with inoculated media but no vehicle or test compounds) were included to assess any potential toxicity from the vehicle. Th e plates were in cubated at 37 °C for 16–18 h, except fo r VRE and E. faecalis, which w ere in cub ated at 37 °C fo r 24 h. Inh ibition was determined by measuring the optical density at 600 nm (OD60 0) with a Cytation 3 pl ate read er (BioTek). The optical density measurem ents were no rmalized to the positive and negative controls and the vehicle and growth controls were compared and found to b e indistinguishable, indicating no toxicity from […]
(§7) the vehicle used. The MIC was the lowest concentration that inhibited >90% of growth. Two biological replicates were performed in duplicate. MIC values are reported as a range from […]

MRSA ATCC 43300 = test: Antibacterial MIC assay, serial dilution; format: cell-based, Staphylococcus aureus; settings: for Selectivity index (CC50/MIC) MRSA 43300: CC50 Vero cells / MIC; for MIC: Staphylococcus aureus, read-out: MIC MRSA ATCC 43300
Protocol: as §4, §5, §6, §7

S. aureus ΔNorA = test: Antibacterial MIC assay, serial dilution; format: cell-based, Staphylococcus aureus; settings: for Selectivity index (CC50/MIC) S. aureus ΔNorA: CC50 Vero cells / MIC; for MIC: Staphylococcus aureus, read-out: MIC S. aureus ∆NorA
Protocol: as §4, §5, §6, §7

[4] = system: Vancomycin resistant E. faecalis NR-31972 (VRE); test: Antibacterial MIC assay, serial dilution; format: cell-based, Enterococcus faecalis; settings: for Selectivity index (CC50/MIC) VRE NR-31972: CC50 Vero cells / MIC; for MIC: Enterococcus faecalis, VRE, 24 h, read-out: MIC Vancomycin resistant E. faecalis NR-31972 (VRE)
Protocol: as §4, §5, §6, §7

[5] = system: Klebsiella pneumoniae ATCC 29665; test: Antibacterial MIC assay, serial dilution; format: cell-based; settings: for MIC: Klebsiella pneumoniae, ATCC29665, range from biological replicates, read-out: MIC K. pneumoniae ATCC-29665
Protocol: as §4, §5, §6, §7

Pseudomonas aeruginosa = test: Antibacterial MIC assay, serial dilution; format: cell-based; settings: for Selectivity index (CC50/MIC) P. aeruginosa: CC50 Vero cells / MIC; for MIC: Pseudomonas aeruginosa, range from biological replicates, read-out: MIC P. aeruginosa
Protocol: as §4, §5, §6, §7

[6] = system: Vancomycin resistant Enterococcus faecium NR-31909 (VRE); test: Antibacterial MIC assay, serial dilution; format: cell-based; settings: for MIC: Enterococcus faecium, VRE, 24 h, read-out: MIC Vancomycin resistant Enterococcus faecium NR-31909 (VRE); for Selectivity index (CC50/MIC) VRE NR-31909: CC50 Vero cells / MIC
Protocol: as §4, §5, §6, §7

[7] = system: Enterococcus faecalis ATCC 29212; test: Antibacterial MIC assay, serial dilution; format: cell-based; settings: for Selectivity index (CC50/MIC) E. faecalis 29212: CC50 Vero cells / MIC; for MIC: Enterococcus faecalis, ATCC 29112 / ATCC 29212, 24 h, read-out: MIC E. faecalis ATCC 29112
Protocol: as §4, §5, §6, §7

[8] = system: Acinetobacter baumannii ATCC 17978; test: Antibacterial MIC assay, serial dilution; format: cell-based; settings: ATCC17978, range from biological replicates
Protocol: as §4, §5, §6, §7

[9] = system: Methicillin resistant S. aureus (MRSA) USA300; test: Antibacterial MIC assay, serial dilution; format: cell-based, Staphylococcus aureus; settings: for Selectivity index (CC50/MIC) MRSA USA300: CC50 Vero cells / MIC; for MIC: Staphylococcus aureus, read-out: MIC Methicillin resistant S. aureus (MRSA) USA300

CC(=O)Nc1ccc(C(=O)Nc2ccn([C@H]3C=C[C@H](NC(=O)C[C@@H](N)CCN(C)C(=N)N)[C@@H](C(=O)O)O3)c(=O)n2)cc1 [Blastimidine C4]
Selectivity index (CC50/MIC) MRSE 35984 [1]: <1.6 | MIC [1]: > 128 µg/mL | MIC [2]: > 128 µg/mL | fold lower cytotoxicity relative to parent molecule (Vero cells): > 10 fold | CC50 at 24 h [3]: 203 µg/mL (≈ 348 µM) | Selectivity index (CC50/MIC) S. aureus 6538P (S. aureus ATCC 6538P): <1.6 | MIC (S. aureus ATCC 6538P): > 128 µg/mL | Selectivity index (CC50/MIC) MRSA 43300 (MRSA ATCC 43300): <1.6 | MIC (MRSA ATCC 43300): > 128 µg/mL | Selectivity index (CC50/MIC) S. aureus ΔNorA (S. aureus ΔNorA): <1.6 | MIC (S. aureus ΔNorA): > 128 µg/mL | Selectivity index (CC50/MIC) VRE NR-31972 [4]: <1.6 | MIC [4]: > 128 µg/mL | MIC [5]: 128 µg/mL (≈ 219 µM) | Selectivity index (CC50/MIC) P. aeruginosa (Pseudomonas aeruginosa): <1.6 | MIC (Pseudomonas aeruginosa): > 128 µg/mL | MIC [6]: > 128 µg/mL | Selectivity index (CC50/MIC) E. faecalis 29212 [7]: <1.6 | MIC [7]: > 128 µg/mL | MIC [8]: > 128 µg/mL | Selectivity index (CC50/MIC) MRSA USA300 [9]: <1.6 | MIC [9]: > 128 µg/mL

COC(=O)[C@H]1O[C@@H](n2ccc(NC(=O)c3ccc(NC(=O)[C@@](C)(N)CO)cc3)nc2=O)C=C[C@@H]1NC(=O)C[C@@H](N)CCN(C)C(=N)N [Blastimidine M5]
Selectivity index (CC50/MIC) MRSE 35984 [1]: 2.3 | MIC [1]: 64 µg/mL (≈ 97.5 µM) | MIC [2]: 32 µg/mL (≈ 48.7 µM) | CC50 at 24 h [3]: 150 µg/mL (≈ 228 µM) | Selectivity index (CC50/MIC) S. aureus 6538P (S. aureus ATCC 6538P): 2.3 | MIC (S. aureus ATCC 6538P): 64 µg/mL (≈ 97.5 µM) | Selectivity index (CC50/MIC) MRSA 43300 (MRSA ATCC 43300): 2.3 | MIC (MRSA ATCC 43300): 64 µg/mL (≈ 97.5 µM) | Selectivity index (CC50/MIC) S. aureus ΔNorA (S. aureus ΔNorA): 2.3 | MIC (S. aureus ΔNorA): 64 µg/mL (≈ 97.5 µM) | Selectivity index (CC50/MIC) VRE NR-31972 [4]: 2.3 | MIC [4]: 64 µg/mL (≈ 97.5 µM) | Selectivity index (CC50/MIC) K. pneumoniae ([5]; CC50 Vero cells / MIC): 3.5 | MIC [5]: 32 to 64 µg/mL (≈ 48.7 to 97.5 µM) | Selectivity index (CC50/MIC) P. aeruginosa (Pseudomonas aeruginosa): <1.2 | MIC (Pseudomonas aeruginosa): > 128 µg/mL | Selectivity index (CC50/MIC) VRE NR-31909 [6]: 6.3 | MIC [6]: 16 to 32 µg/mL (≈ 24.4 to 48.7 µM) | Selectivity index (CC50/MIC) E. faecalis 29212 [7]: 2.3 | MIC [7]: 64 µg/mL (≈ 97.5 µM) | MIC [8]: > 128 µg/mL | Selectivity index (CC50/MIC) MRSA USA300 [9]: 2.3 | MIC [9]: 64 µg/mL (≈ 97.5 µM)

CN(CC[C@H](N)CC(=O)N[C@H]1C=C[C@H](n2ccc(N)nc2=O)O[C@@H]1C(=O)NCCc1ccccc1)C(=N)N [Blastimidine P1, blasticidin S phenethylamide]
Selectivity index (CC50/MIC) MRSE 35984 [1]: 59 | MIC [1]: 4 µg/mL (≈ 7.61 µM) | MIC [2]: > 128 µg/mL | CC50 at 24 h [3]: 235 µg/mL (≈ 447 µM) | Selectivity index (CC50/MIC) S. aureus 6538P (S. aureus ATCC 6538P): 15 | MIC (S. aureus ATCC 6538P): 16 µg/mL (≈ 30.4 µM) | Selectivity index (CC50/MIC) MRSA 43300 (MRSA ATCC 43300): 7.3 | MIC (MRSA ATCC 43300): 32 µg/mL (≈ 60.9 µM) | Selectivity index (CC50/MIC) S. aureus ΔNorA (S. aureus ΔNorA): 1.8 | MIC (S. aureus ΔNorA): 128 µg/mL (≈ 244 µM) | Selectivity index (CC50/MIC) VRE NR-31972 [4]: 15 | MIC [4]: 16 µg/mL (≈ 30.4 µM) | MIC [5]: > 128 µg/mL | Selectivity index (CC50/MIC) P. aeruginosa (Pseudomonas aeruginosa): 2.8 | MIC (Pseudomonas aeruginosa): 64 to 128 µg/mL (≈ 122 to 244 µM) | Selectivity index (CC50/MIC) VRE NR-31909 [6]: 1.8 | MIC [6]: 128 µg/mL (≈ 244 µM) | Selectivity index (CC50/MIC) E. faecalis 29212 [7]: 15 | MIC [7]: 16 µg/mL (≈ 30.4 µM) | MIC [8]: > 128 µg/mL | Selectivity index (CC50/MIC) MRSA USA300 [9]: 20 | MIC [9]: 8 to 16 µg/mL (≈ 15.2 to 30.4 µM)
